In US8017313B2, “Human G protein-coupled receptor and modulators thereof for the treatment of cardiovascular disorders” (Arena Pharmaceuticals, Inc., priority 2003, dated 2011):

system: RUP40 transcript in neonatal rat ventricular myocytes (NRVMs); experiment: RT-PCR of RUP40 transcript in neonatal rat ventricular myocytes; format: cell-based; details: 24 hours following addition to media, FIG. 4
Procedure: Neonatal rat ventricular myocytes (NRVMs) were isolated and cultured as described previously [Adams, J W et al., J Biol Chem (1996) 271:1179-86]. Briefly, hearts were obtained from 1- to 2-day old Sprague-Dawley rat pups and digested with collagenase, and myocytes were purified by passage through a Percoll gradient. Cells were plated onto tissue culture dishes precoated with 1% gelatin and maintained overnight in 4:1 DMEM/medium-199 supplemented with 10% horse serum, 5% fetal calf serum, and antibiotics (100 units/ml penicillin and 100 μg/ml streptomycin. After 18 hours in plating medium, myocytes were washed with maintenance medium (DMEM/medium 199 plus antibiotics) to remove dead cells and debris and refreshed with maintenance medium for the duration of the experiment.
Total RNA isolated from NRVMs and fibroblasts as described above was used as a template for generation of reverse transcribed DNA (RT-DNA) using the RT for PCR kit (Becton Dickinson, Franldin, N.J.) according to manufacturer's instructions. RUP40 expression was detected in RT-DNA samples by PCR. PCR conditions were: 96° C. or 2 min; 30 cycles of 96° C. for 30 sec, 55° C. for 30 sec, 72° C. for 2 min; 72° C. for 10 min.
The amplified rat RUP40 DNA product is of size 403 base pairs. G3PDH amplifiers (Becton Dickinson, Franldin, N.J.) were added to each PCR reaction as an internal control.

**Q.** `CNC[C@H](O)c1cccc(O)c1` [PE, phenylephrine] was tested. Which “RUP40 transcript levels in the myocytes” value did it give?
**A.** remain elevated

**Q.** For `CCCCCCCCCCCCCC(=O)O[C@@H]1[C@@H](C)[C@@]2(O)[C@@H](C=C(CO)C[C@]3(O)C(=O)C(C)=C[C@@H]23)[C@@H]2C(C)(C)[C@]12OC(C)=O` [PMA, phorbol 12-myristate 13-acetate], which “RUP40 transcript levels in the myocytes” value is on record?
**A.** drop dramatically

**Q.** Which “RUP40 transcript levels in the myocytes” value does the source give for prostaglandin F2 alpha [PG] here?
**A.** remain elevated
